The values below come from patent publication US20060216362A1, “Remedy” (priority 2003, published 2006).

Common to all, as to type: cell-based
Test [1] concerns Preadipocyte cell line 3T3-L1. Put plainly: Induction of differentiation into adipocytes, determined as amount of biosynthesis of triglyceride. As to conditions: positive control, 4 μl then 2 μl of a 5 mg/ml aqueous solution per 2 ml well. From the text:
There have been known that insulin enhances induction of differentiation of preadipocytes into adipocytes, and that glucose uptake takes place in matured adipocytes thereby accumulating triglyceride in the adipocytes (J. Biol. Chem., Vol. 253, No. 20, P7570-7578 (1978)). Specifically, utilizing this method, an insulin-mimetic action of a test substance can be determined by administering a test substance in place of insulin, and determining differentiation into an adipocyte and the amount of triglyceride in the adipocytes.
The induction of differentiation into adipocytes was carried out by partially modifying the above-mentioned method of Rubin C. S. et al. (J. Biol. Chem., Vol. 253, No. 20, P7570-7578 (1978)). Preadipocyte cell line 3T3-L1 (ATCC CCL-92.1) was suspended in a 10% fetal bovine serum (manufactured by GIBCO)-containing Dulbecco's modified Eagle's medium (manufactured by Sigma, D6046) containing 200 μM ascorbic acid (hereinafter referred to as A-D-MEM medium) so as to have a density of 4×10^3 cells/ml, and the suspension was put in each well of a 12-well microtiter plate in an amount of 2 ml per well. The cells were cultured at 37° C. for 7 days in the presence of 5% carbon dioxide gas. […]
The amount of triglyceride in the adipocytes was determined as an index for inducing differentiation into matured adipocytes, and as evaluation of insulin-mimetic action. […]

The test system of test [2] is mature adipocytes (3T3-L1 cells). The test can be described thus: Enhancing action on glucose uptake: 2-deoxy-[1,2-3H(N)]-glucose uptake into mature adipocytes. The conditions noted are these: positive control, final concentration 1 μg/mL, added when 45 minutes passed; vs negative control. From the text:
In addition, there have been known that insulin has an enhancing action on glucose uptake into a cell, and that glucose uptake into the cell is enhanced by the action of insulin in a matured adipocyte (J. Biol. Chem., Vol. 253, No. 20, P7579-7583 (1978)). Specifically, utilizing this method, an insulin-mimetic action of a test substance can be determined by administering a test substance in place of insulin, and determining the amount of glucose uptake into a matured adipocyte.
The induction of differentiation into mature adipocytes was carried out by partially modifying the method of Rubin C. S. et al. 3T3-L1 cells were suspended in a 10% fetal bovine serum-containing Dulbecco's modified Eagle's medium (manufactured by Sigma, D6046) containing 200 μM ascorbic acid so as to have a density of 4×10^3 cells/ml, and the suspension was put in each well of a 12-well microtiter plate in an amount of 2 ml per well. The cells were cultured at 37° C. for 7 days in the presence of 5% carbon dioxide gas. […]
As the evaluation of enhancing action on glucose uptake, and also as the evaluation of insulin-mimetic action, the amount of 2-deoxyglucose uptake into mature adipocytes stimulated with the sample (the above-mentioned extract fraction from Corchorus olitorius) in the adipocytes was determined. […]

Test [3] shares this test system. Put plainly: Synergistic action of ethanol extract fraction and low-concentration insulin to enhance glucose uptake. As to conditions: insulin alone, final concentration 0.01 μg/mL, 30 minutes; vs negative control. As for the experimental part:
As the evaluation of synergistic action of the ethanol extract fraction from Polygonum hydropiper prepared in Example 15 and a low-concentration insulin to enhance glucose uptake, the amount of 2-deoxyglucose uptake into mature adipocytes stimulated with the sample (the above-mentioned extract fraction from Polygonum hydropiper and insulin) was determined partly in accordance with the method described in Example 17. The mature adipocytes were prepared in accordance with the method described in Example 3.
After the termination of the culture, the medium was removed, and the cells were washed twice with a 0.1% (w/v) bovine serum albumin-containing Dulbecco's modified Eagle's medium. Thereafter, the cells were cultured overnight at 37° C. in the presence of 5% carbon dioxide gas. After the overnight culture, the cells were washed twice with a HEPES buffered saline (140 mM NaCl, 5 mM KCl, 2.5 mM MgSO4, 1 mM CaCl2, 20 mM HEPES-Na (pH 7.4)). The amount 0.9 mL of the same buffer was added thereto, and the cells were cultured at 37° C. for 45 minutes. […] Thereafter, 2-deoxy-[1,2-3H(N)]-glucose taken into the adipocytes was determined in the same manner as the method described in Example 3.

The test system is the same in test [4]. Put plainly: Glucose uptake enhancement inhibited by cytochalasin B (glucose transporter inhibitor). As for the experimental part: The influence of cytochalasin B on 2-deoxyglucose uptake into mature adipocytes stimulated with the sample in the adipocytes was tested in accordance with the method described in Example 17 on whether or not the enhancing action of the ethanol extract fraction from Polygonum hydropiper obtained in Example 15 on glucose uptake is inhibited by cytochalasin B, which is an inhibitor of a glucose transporter.
Specifically, as a sample, there was set a group with addition of a dimethyl sulfoxide solution of the ethanol extract fraction from Polygonum hydropiper so as to have a final concentration of 0.05% to a well (treatment for a short period of time). There were set a group without addition of the sample as a negative control, and a group with addition of insulin so as to have a final concentration of 1 μg/mL as a positive control. Furthermore, in each group, there was set a group with addition of cytochalasin B (manufactured by Nacalai Tesque, Inc., 10435-81) so as to have a final concentration of 40 μM at the same time as the time of addition of insulin or the sample. Thereafter, the amount of 2-deoxy-[1,2^3H(N)]-glucose taken into the adipocytes was determined in the same manner.

Consider insulin, for which, in test [1], the “induction of triglyceride biosynthesis (differentiation into adipocytes)” value is on record as “induction of triglyceride biosynthesis could be also confirmed”. For the same molecule, the “enhancement of 2-deoxy-[1,2-3H(N)]-glucose uptake” value was “enhancement of 2-deoxy-[1,2^3H(N)]-glucose uptake was found” in test [2]; “enhancement of 2-deoxy-[1,2^3H(N)]-glucose uptake was found” in test [3]; “enhancement of 2-deoxy-[1,2^3H(N)]-glucose uptake was found” in test [4] (positive control, final concentration 1 μg/mL, without cytochalasin B, vs negative control).

As to `C=C1[C@@H](C)[C@H]2[C@H](Cc3ccccc3)NC(=O)[C@]23OC(=O)/C=C/[C@H](O)CCC[C@@H](C)C/C=C/[C@H]3[C@@H]1O` [cytochalasin B], in test [4] (cytochalasin B 40 μM added at the same time as insulin or sample, in every group), the “effect on 2-deoxy-[1,2-3H(N)]-glucose uptake” value was “almost completely inhibited”.
